# Measurements as given in US8980886B2, “Anthranilic acid derivatives” (Bayer Cropscience AG, priority 2010, dated 2015).
# Key:
# [1] = tested on: Lucilia cuprina; experiment: Lucilia cuprina test (LUCICU); format: in vivo; details: 48 h, treated horse meat, larvae, after 2 days, read-out: kill in %
# Method: (§1) Solvent: dimethyl sulphoxide To produce a suitable preparation of active compound, 10 mg of active compound are mixed with 0.5 ml of dimethyl sulphoxide and the concentrate is diluted with water to the desired concentration. Vessels containing horse meat treated with the active compound preparation of the desired concentration are populated with about 20 Lucilia cuprina larvae. After 2 days, the kill in % is determined. 100% means that all of the larvae have been killed; 0% means that none of the larvae have been killed.
# [2] = tested on: Musca domestica; experiment: Musca domestica test (MUSCDO); format: in vivo; details: 100 ppm, treated sponge, adult flies, after 2 days
# Method: as §1, with “a sponge” for “horse meat”, “adult Musca domestica.” for “about 20 Lucilia cuprina larvae.”, “flies” for “larvae”
# [3] = tested on: Spodoptera frugiperda; experiment: Spodoptera frugiperda test (SPODFR spray treatment); format: in vivo; details: foliar, 168 h, sprayed maize leaf discs, after 7 days, read-out: effect in % (caterpillars killed)
# Method: Solvents: 78.0 parts by weight of acetone 1.5 parts by weight of dimethylformamide Emulsifier: 0.5 part by weight of alkylaryl polyglycol ether To produce a suitable preparation of active compound, 1 part by weight of active compound is mixed with the stated amount of solvents and emulsifier, and the concentrate is diluted with emulsifier-containing water to the desired concentration. Discs of maize leaves (Zea mays) are sprayed with an active compound preparation of the desired concentration and, after drying, populated with caterpillars of the armyworm (Spodoptera frugiperda). After 7 days, the effect in % is determined 100% means that all caterpillars have been killed; 0% means that none of the caterpillars have been killed.
# [4] = tested on: Boophilus microplus; experiment: Boophilus microplus test (BOOPMI injection); format: in vivo; details: 20 μg/animal, injection into the abdomen, after 7 days
# Method: Solvent: dimethyl sulphoxide To produce a suitable preparation of active compound, 10 mg of active compound are mixed with 0.5 ml of solvent and the concentrate is diluted with solvent to the desired concentration. The active compound solution is injected into the abdomen (Boophilus microplus), and the animals are transferred into dishes and stored in a climate-controlled room. The activity is assessed by […] of fertile eggs. After 7 days, the effect in % is determined. 100% means that none of the ticks has laid any fertile eggs.
# [5] = logP by HPLC on reversed-phase columns (C 18), EEC Directive 79/831 Annex V.A8; format: physicochemical; details: reversed-phase HPLC column (C 18), pH 2.7, HPLC, reversed-phase C 18, acidic range pH 2.7; table of compounds; read-out: log P
# Method: The logP values reported in the table above and in the Preparation Examples were determined in accordance with EEC Directive 79/831 Annex V.A8 by HPLC (High Performance Liquid Chromatography) on reversed-phase columns (C 18), with the following methods: The LC-MS determination in the acidic range is carried out at pH 2.7 using the mobile phases 0.1% aqueous formic acid and acetonitrile (contains 0.1% formic acid), linear gradient from 10% acetonitrile to 95% acetonitrile Calibration was carried out using unbranched alkan-2-ones (having from 3 to 16 carbon atoms) with known logP values (the logP values were determined by the retention times using linear interpolation between two successive alkanones).
# [6] = tested on: Phaedon cochleariae; experiment: Phaedon test (PHAECO spray treatment); format: in vivo; details: 168 h, sprayed Chinese cabbage discs, after 7 days, read-out: activity in % (beetle larvae killed)
# Method: Solvents: 78.0 parts by weight of acetone 1.5 parts by weight of dimethylformamide Emulsifier: 0.5 part by weight of alkylaryl polyglycol ether To produce a suitable preparation of active compound, 1 part by weight of active compound is mixed with the stated amount of solvents and emulsifier, and the concentrate is diluted with emulsifier-containing water to the desired concentration. Discs of Chinese cabbage (Brassica pekinensis) are sprayed with an active compound preparation of the desired concentration and, after drying, populated with larvae of the mustard beetle (Phaedon cochleariae). After 7 days, the activity in % is determined. 100% means that all beetle larvae have been killed; 0% means that none of the beetle larvae have been killed.
# [7] = tested on: Myzus persicae; experiment: Myzus test (MYZUPE spray treatment); format: in vivo; details: 100 g/ha, sprayed Chinese cabbage discs, all stages, after 6 days
# Method: Solvents: 78 parts by weight of acetone 1.5 parts by weight of dimethylformamide Emulsifier: 0.5 part by weight of alkylaryl polyglycol ether To produce a suitable preparation of active compound, 1 part by weight of active compound is mixed with the stated amount of solvents and emulsifier, and the concentrate is diluted with emulsifier-containing water to the desired concentration. Discs of Chinese cabbage (Brassica pekinensis) infested by all stages of the green peach aphid (Myzus persicae) are sprayed with an active compound preparation of the desired concentration. After 6 days, the effect in % is determined. 100% means that all of the aphids have been killed; 0% means that none of the aphids have been killed.
chromatographic logP [5],SMILES,pest or weed control at 100 ppm [1] [%],kill in % [2] [%],pest or weed control at 100 g/ha [3] [%],effect in % (no fertile eggs laid) [4] [%],pest or weed control at 100 g/ha [6] [%],effect in % (aphids killed) [7] [%]
3.5,Cc1cc(C#N)cc(C(=O)NC(C)C)c1NC(=O)c1cnc(Cn2nnc(C(F)(F)F)n2)nc1-c1ccccc1Cl [Compound 37],100,100,100,100,100,–
3.31,CNC(=O)c1cc(C#N)cc(C)c1NC(=O)c1cc(Cn2nnc(C(F)(F)F)n2)cn1-c1ccccc1Cl [Compound 42],–,–,100,–,100,80
3.75,CNC(=O)c1cc(Cl)cc(C)c1NC(=O)c1cc(Cn2nnc(C(F)(F)F)n2)cn1-c1ccccc1Cl [Compound 43],–,–,100,–,100,100
